Data set [1] has as its system SW620 cells (K-Ras G12V). Put plainly: Phospho-ERK1/2(THR202/TYR204) HTRF assay, SW620. Format: cell-based. Particulars: read-out: pERK, IC50, SW620.
Protocol: (§1) Each of cells in culture medium was seeded in 96-well plates at density indicated in Table 4 and put in a cell incubator to incubate overnight. The next day, the culture medium was removed and the compound diluted in assay medium was added in each well. […] 10 μL of cell lysates from the 96-well plates were transferred to a 384-well plate (Greiner) containing 2.5 μL/well HTRF® pre-mixed antibodies (Cisbio 64AERPEH). The plate was incubated 4 hours at 25° C. and read HTRF signals on Tecan Spark multimode microplate reader. The data were analyzed using a 4-parameter logistic model to calculate IC50 values.
The test system of data set [2] is AsPC-1 cells (K-Ras G12D).
Protocol: (§2) Each of cells in culture medium was plated in TC-treated 96-well plates at a density indicated in Table 4 and incubated in a cell incubator overnight. The next day, each of compounds was diluted in culture medium and added to the plates. After 6 days incubation in cell incubator, the cell viability was detected by CellTiter-Glo® Cell Viability Assay kit (Promega).
Data set [3] relates to SW620 cells (K-Ras G12V).
Protocol: as §2
Data set [4] deals with T1, GppNp-KRAS G12D (Homo sapiens, UniProt P01116, G12D). Put plainly: GTP-K-Ras and cRAF interaction assay, GppNp-KRAS G12D. Particulars: read-out: Biochemical assays, IC50, KRAS G12D GppNp; GppNp-loaded K-Ras G12D, cRAF RBD interaction, HTRF.
T1 sequence (P01116 1-169 isoform P01116-2 G12D): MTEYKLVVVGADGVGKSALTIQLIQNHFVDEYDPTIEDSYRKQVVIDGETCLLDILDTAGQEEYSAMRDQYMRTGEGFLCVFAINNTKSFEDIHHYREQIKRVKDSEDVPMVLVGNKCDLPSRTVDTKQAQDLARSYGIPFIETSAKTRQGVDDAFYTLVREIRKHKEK
Data set [5] addresses T2, GppNp-KRAS G12V (Homo sapiens, UniProt P01116, G12V). Put plainly: GTP-K-Ras and cRAF interaction assay, GppNp-KRAS G12V. Particulars: read-out: Biochemical assays, IC50, KRAS G12V GppNp; GppNp-loaded K-Ras G12V, cRAF RBD interaction, HTRF. Background: In TR-FRET formats the signal depends on donor and acceptor labels being close together.
Data set [6] concerns the target T3, GDP-KRAS G12D (Homo sapiens, UniProt P01116, G12D). Put plainly: SOS1 catalyzed nucleotide exchange assay, GDP-KRAS G12D. Particulars: read-out: Biochemical assays, IC50, KRAS G12D GDP, GDP form K-Ras G12D, TR-FRET.
Data set [7] has as its target T4, GDP-KRAS G12V (Homo sapiens, UniProt P01116, G12V). Put plainly: SOS1 catalyzed nucleotide exchange assay, GDP-KRAS G12V. Particulars: read-out: Biochemical assays, IC50, KRAS G12V GDP, GDP form K-Ras G12V, TR-FRET.
The nature of data set [8]: Mouse pharmacokinetic study. Format: in vivo. Particulars: Balb/c mouse (female); for AUC0-24 h / Cl_obs / Cmax: plasma; for F: 10 mg/kg po vs 3 mg/kg iv. The protocol: The purpose of this study was to evaluate the pharmacokinetic properties of compounds in Balb/c mouse (female) following single dose administration. Six mice were needed for each compound and the six mice were divided into two groups (n=3/group), group A and group B. Mice in group A were treated with a single 3 mg/kg dose of compound (iv). Mice in group B were treated with a single 10 mg/kg dose of compound (po). Foreach mouse in group A, blood samples were collected at the time point of 0.083 h 0.5 h, 1 h, 2 h, 4 h, 8 h and 24 h post-dose. For each mouse in group B, blood samples were collected at the time point of 0.25 h, 0.5 h, 1 h, 2 h, 4 h, 8 h and 24 h post-dose. Blood samples were placed on ice until centrifugation to obtain plasma samples. The plasma samples were stored at −80° C. until analysis. The concentration of compound in plasma samples was determined using a LC-MS/MS method.

In data set [9] the test system is Capan-2 cells (K-Ras G12V).
Protocol: as §1
Data set [10] has as its system AGS cells (K-Ras G12D).
Protocol: as §2
The test system of data set [11] is AGS cells (K-Ras G12D). The source holds these as a separate data set.
Protocol: as §1
Data set [12] deals with T3, GDP-KRAS G12D. Put plainly: biochemical.
Data set [13] deals with T4, GDP-KRAS G12V. Put plainly: biochemical.
Data set [14] has as its target T1, GppNp-KRAS G12D. Put plainly: biochemical.
The target in data set [15] is T2, GppNp-KRAS G12V. Put plainly: biochemical.
[16] abbreviates: Homo sapiens, SW-620, 2 hours incubation.

The IC50 is the concentration at which inhibition is half-maximal. The term Cmax denotes the highest concentration seen after dosing.

Molecules are shown by their SMILES. Where two headings read alike, the source gives them in different places.

T3 sequence (P01116 1-169 isoform P01116-2 G12D): as above
T4 sequence (P01116 1-169 isoform P01116-2 G12V): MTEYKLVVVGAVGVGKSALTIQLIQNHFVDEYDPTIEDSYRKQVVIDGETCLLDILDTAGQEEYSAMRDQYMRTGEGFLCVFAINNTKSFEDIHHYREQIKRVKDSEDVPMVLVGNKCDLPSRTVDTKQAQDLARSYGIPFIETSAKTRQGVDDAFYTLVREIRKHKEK
T2 sequence (P01116 1-169 isoform P01116-2 G12V): as above

Turning to `C#Cc1c(F)ccc2cc(N)cc(-c3c(Cl)c4c5c(nc(OCC67CCCN6CC(F)C7)nc5c3F)N3CCCOCC3CO4)c12` (single isomer, unassigned) [Compound 11B], the IC50 amounted to 53.5 nM in data set [1] (2 hours incubation); 806 nM in data set [2]; 117 nM in data set [3]; 233 nM in data set [4]; 311 nM in data set [5]; 5.69 nM in data set [6]. Further, in [7], the 50% inhibitory concentration (IC50) worked out at 3.92 nM.
With `N#Cc1c(N)sc2c(F)ccc(-c3c(Cl)c4c5c(nc(OCC67CCCN6CC(F)C7)nc5c3F)N3CCCOCC3CO4)c12` (single isomer, unassigned) [Compound 66B], the AUC0-24 h in data set [8] (3 mg/kg, iv) came out at 8951 ng·h/mL; in data set [8] (10 mg/kg, po), 3217 ng·h/mL. For the same molecule, the Cl_obs in data set [8] (3 mg/kg, iv) is given as 5.77 mL/min/kg. In addition, the F in data set [8] turned out to be 10.8%. In data set [8] (10 mg/kg, po), this molecule showed a Cmax of 1175 ng/mL. Further, the IC50 turned out to be 1.94 nM in data set [9]; 5.91 nM in [2]; 2.22 nM in data set [3]; 4.06 nM in data set [4]; 8.62 nM in data set [5]; 0.983 nM in data set [6]. In addition, in [7], the IC50 worked out at 0.924 nM.
As to `C#Cc1c(F)ccc2cc(N)cc(-c3nc4c5c(nc(OC[C@@]67CCCN6C[C@H](F)C7)nc5c3F)N3CC(C)COCC3N4C)c12` (single isomer, unassigned) [Compound 103], the IC50 was found to be 10.1 nM in data set [1] (2 hours incubation); 180 nM in data set [2]; 14.5 nM in [3]; 214 nM in [4]; 101 nM in data set [5]; 3.45 nM in data set [6]. Moreover, the half-inhibitory concentration (IC50) in data set [7] came to 1.79 nM.
Regarding `CSc1cccc2cc(O)cc(-c3nc4c5c(nc(OC[C@@]67CCCN6C[C@H](F)C7)nc5c3F)N3CCCOC[C@H]3N4C)c12` [Compound 20], the IC50 in data set [9] worked out at 10.3 nM; in data set [10], 22.1 nM; in data set [2], 110 nM; in data set [3] it was 24.4 nM.
In the case of `C#Cc1c(F)ccc2cc(N)cc(-c3nc4c5c(nc(OCC67CCCN6CC(F)C7)nc5c3F)N3CCCCCC3CO4)c12` (stereo not drawn) [Compound 27B], the IC50 in data set [1] (2 hours incubation) was 12.4 nM; in data set [2] it was 110 nM; in data set [3], 16.9 nM; in data set [4], 174 nM; in data set [5], 563 nM; in data set [6], 2.51 nM. In addition, in [7], the IC50 came out at 2.69 nM.
On to `C#Cc1c(F)ccc2cc(N)cc(-c3nc4c5c(nc(OC[C@@]67CCCN6C[C@H](F)C7)nc5c3F)N3[C@@H](COCC[C@@H]3C)CO4)c12` [Compound 38A], for which the IC50 in data set [1] (2 hours incubation) was found to be 0.648 nM; in data set [2], 28.7 nM; in data set [3] it was 2.64 nM; in data set [4], 51.9 nM; in [5] it was 75.6 nM; in data set [6], 0.46 nM. Besides, the IC50 in data set [7] came out at 0.292 nM. Besides, the AUC0-24 h was 4004 ng·h/mL in [8] (3 mg/kg, iv) and 5213 ng·h/mL in [8] (10 mg/kg, po). The molecule further yielded a Cl_obs in data set [8] (3 mg/kg, iv) of 12.7 mL/min/kg. Further, the F in [8] came out at 39.1%. Moreover, the Cmax in [8] (10 mg/kg, po) is 971 ng/mL.
Turning to `C#Cc1c(F)ccc2cc(N)cc(-c3nc4c5c(nc(OCC67CCCN6CC(F)C7)nc5c3F)N3C(C)CCOCC3CO4)c12` (stereo not drawn) [Compound 38B], the IC50 stood at 2.59 nM in data set [1] (2 hours incubation); 61.3 nM in [2]; 5.47 nM in data set [3]; 174 nM in data set [4]; 685 nM in data set [5]; 1.05 nM in [6]. The IC50 in data set [7] was found to be 0.397 nM.
`[2H]C([2H])([2H])N1c2nc(-c3cc(N)cc4ccc(F)c(C#C)c34)c(F)c3nc(OC[C@@]45CCCN4C[C@H](F)C5)nc(c23)N2CCCOC[C@H]21` [Compound 48]: the IC50 worked out at 3.68 nM in data set [1] (setting [16]); 3.53 nM in data set [11]; 1.65 nM in data set [9]; 3.44 nM in [10]; 26.6 nM in data set [2]; 2.55 nM in data set [3]. For the same molecule, the IC50 in data set [12] came out at 0.759 nM; in [13] it was 0.595 nM; in data set [14] it was 35.8 nM; in data set [15] it was 55.4 nM.
Regarding `C#Cc1c(F)ccc2cc(N)cc(-c3nc4c5c(nc(OCC67CCCN6CC(F)C7)nc5c3F)N3C(C(F)F)CCOCC3N4C)c12` (stereo not drawn) [Compound 52B], the IC50 in data set [9] worked out at 2.01 nM; in [2], 111 nM; in [3], 29.5 nM; in data set [4], 302 nM; in data set [5], 622 nM; in [6], 3.25 nM. In addition, the IC50 in [7] turned out to be 1.97 nM.
With `C#Cc1c(F)ccc2cc(N)cc(-c3nc4c5c(nc(OC[C@@]67CCCN6C[C@H](F)C7)nc5c3F)N3CCCOCC3N4CCC(F)(F)F)c12` (stereo partly drawn) [Compound 104], the IC50 was 485 nM in [11]; 9.19 nM in data set [12]; 17.6 nM in data set [13]; > 1000 nM in [14]; > 1000 nM in [15].
With `C#Cc1c(F)ccc2cc(N)cc(-c3nc4c5c(nc(OC[C@@]67CCCN6C[C@H](F)C7)nc5c3F)N3CC(F)(F)CCC[C@@H]3N4C)c12` [Compound 106A], the IC50 in [4] is > 1000 nM; in [5], > 1000 nM; in data set [6] it was 630 nM; in [7] it was 226 nM.
On to `C#Cc1c(F)ccc2cc(N)cc(-c3nc4c5c(nc(OC[C@@]67CCCN6C[C@H](F)C7)nc5c3F)N3CCC=C[C@H](F)[C@H]3N4C)c12` [Compound 108A], for which the IC50 in [9] came to 8.81 nM; in data set [2], 62.7 nM; in [3] it was 15.8 nM; in data set [4] it was 106 nM; in [5], 214 nM; in data set [6], 3.32 nM. Also, in data set [7], the IC50 was 2.95 nM.
For `C#Cc1c(F)ccc2cc(N)cc(-c3nc4c5c(nc(OC[C@@]67CCCN6C[C@H](F)C7)nc5c3F)N3CCCOCC3N4)c12` (stereo partly drawn) [Compound 113], the half-inhibitory concentration (IC50) in data set [1] (setting [16]) stood at 21.4 nM; in data set [11] it was 33.6 nM; in data set [10], 35.1 nM; in data set [2], 587 nM; in data set [3], 45.4 nM; in [12] it was 4.62 nM. Besides, the results for the IC50 in data set [13], in data set [14] and in data set [15] were 3.81 nM, 623 nM and 513 nM, respectively.
With `C#Cc1c(F)ccc2cc(N)cc(-c3nc4c5c(nc(OC[C@@]67CCCN6C[C@H](F)C7)nc5c3F)N3[C@H]5COC[C@H]5COC[C@H]3N4C)c12` [Compound 123D], the figures for the IC50 in data set [11] and in data set [9] were 2.18 nM and 2.07 nM, respectively.
As to `C#Cc1c(F)ccc2cc(N)cc(-c3nc4c5c(nc(OCC67CCCN6CC(F)C7)nc5c3F)N3C(C#N)CCCCC3N4C)c12` (stereo not drawn) [Compound 168B], the IC50 is > 1000 nM in data set [4], > 1000 nM in data set [5], 503 nM in data set [6] and 631 nM in data set [7].
As for `C#Cc1c(F)ccc2cc(N)cc(-c3nc4c5c(nc(OCC67CC(=C)CN6CC(OC)C7)nc5c3F)N3CCCOCC3N4C)c12` (stereo not drawn) [Compound 169], the IC50 in [9] was 0.778 nM; in [2], 93.6 nM; in [3], 15.2 nM; in data set [4], 164 nM; in data set [5], 245 nM; in data set [6] it was 1.67 nM. The IC50 in data set [7] turned out to be 3.33 nM.
